Assay results taken from PubChem BioAssay AID1919017 (Molecular Pharmacology Branch, DTP, NCI, 2023).

Tested on: SW1271 complex spheroids with HUVEC/MSC, growth, % test/control
Assay: Anticancer human tumor SW1271 cell line growth inhibition [AhR];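 further: spheroids exposed to agents for 7 days before readout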
Settings: for IC50: curve of first compound; for viability, T/C: stronger effect = lower value
Summary of the method: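 Complex tumor spheroids co-cultured with HUVEC and human MSC stroma; AhR antagonists tested in combination with standard-of-care and investigational agents. Top concentration at or near clinical Cmax (else 10 microM), half-log dilutions; growth expressed as percent test/control.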

[1] = second compound 0.1 µM, first compound 0.0316 µM
[2] = second compound 0.1 µM, first compound 0.1 µM
[3] = second compound 0.1 µM, first compound 0.316 µM
[4] = second compound 0.1 µM, first compound 1 µM
[5] = second compound 0.1 µM, first compound 3.16 µM
[6] = second compound 0.1 µM, first compound 10 µM
[7] = second compound 0.316 µM, first compound 0.0316 µM
[8] = second compound 0.316 µM, first compound 0.1 µM
[9] = second compound 0.316 µM, first compound 0.316 µM
[10] = second compound 0.316 µM, first compound 1 µM
[11] = second compound 0.316 µM, first compound 3.16 µM
[12] = second compound 0.316 µM, first compound 10 µM
[13] = second compound 1 µM, first compound 0.0316 µM
[14] = second compound 1 µM, first compound 0.1 µM
[15] = second compound 1 µM, first compound 0.316 µM
[16] = second compound 1 µM, first compound 1 µM
[17] = second compound 1 µM, first compound 3.16 µM
[18] = second compound 1 µM, first compound 10 µM
[19] = second compound 3.16 µM, first compound 0.0316 µM
[20] = second compound 3.16 µM, first compound 0.1 µM
[21] = second compound 3.16 µM, first compound 0.316 µM
[22] = second compound 3.16 µM, first compound 1 µM
[23] = second compound 3.16 µM, first compound 3.16 µM
[24] = second compound 3.16 µM, first compound 10 µM
[25] = second compound 10 µM, first compound 0.0316 µM
[26] = second compound 10 µM, first compound 0.1 µM
[27] = second compound 10 µM, first compound 0.316 µM
[28] = second compound 10 µM, first compound 1 µM
[29] = second compound 10 µM, first compound 3.16 µM
[30] = second compound 10 µM, first compound 10 µM

Row | SMILES | IC50 (second compound 0.1 µM) | IC50 (second compound 0.316 µM) | IC50 (second compound 1 µM) | IC50 (second compound 3.16 µM) | IC50 (second compound 10 µM) | viability, T/C [1] | viability, T/C [2] | viability, T/C [3] | viability, T/C [4] | viability, T/C [5] | viability, T/C [6] | viability, T/C [7] | viability, T/C [8] | viability, T/C [9] | viability, T/C [10] | viability, T/C [11] | viability, T/C [12] | viability, T/C [13] | viability, T/C [14] | viability, T/C [15] | further results
1 | Nc1ccccc1NC(=O)c1ccc(CNC(=O)OCc2cccnc2)cc1 + CC(CO)NC(=O)c1cc(-c2ccc(Cl)cc2)nn(-c2cnn(C)c2)c1=O | 1040 nM | 838 nM | 676 nM | 1000 nM | 294 nM | 92.2% | 89.6% | 78.5% | 43% | 34.8% | 10.7% | 103% | 85.2% | 67.3% | 41.4% | 35% | 9.29% | 87.7% | 82% | 60.4% | viability, T/C [16]: 40.8%; viability, T/C [17]: 30.2%; viability, T/C [18]: 10.4%; viability, T/C [19]: 65.2%; viability, T/C [20]: 64.7%; viability, T/C [21]: 65.5%; viability, T/C [22]: 44.9%; viability, T/C [23]: 34.5%; viability, T/C [24]: 11%; viability, T/C [25]: 70.2%; viability, T/C [26]: 63%; viability, T/C [27]: 43.5%; viability, T/C [28]: 43.6%; viability, T/C [29]: 19%; viability, T/C [30]: 11.4%
2 | O=C(C=Cc1cccc(S(=O)(=O)Nc2ccccc2)c1)NO + CC(CO)NC(=O)c1cc(-c2ccc(Cl)cc2)nn(-c2cnn(C)c2)c1=O | 1200 nM | 768 nM | 1500 nM | 914 nM | 793 nM | 98.4% | 92.5% | 75.4% | 57.9% | 24.7% | 9.02% | 92.4% | 87.6% | 71.1% | 45.5% | 16.6% | 11.7% | 85.9% | 80.8% | 75.5% | viability, T/C [16]: 63%; viability, T/C [17]: 28.4%; viability, T/C [18]: 9.03%; viability, T/C [19]: 85%; viability, T/C [20]: 73.1%; viability, T/C [21]: 65.2%; viability, T/C [22]: 51.4%; viability, T/C [23]: 27%; viability, T/C [24]: 10.7%; viability, T/C [25]: 90.2%; viability, T/C [26]: 76.2%; viability, T/C [27]: 54.4%; viability, T/C [28]: 57.1%; viability, T/C [29]: 26.7%; viability, T/C [30]: 9.34%
